Where two headings read alike, the source gives them in different places.
Key:
[1] = system: MDA-MB-231 cells; assay: Head-to-head MTT antiproliferative assay, 6-day exposure; type: cell-based, human
Protocol: (§1) Figure 2 VNLG-152R inhibits mTORC1 signaling and the production of pro-inflammatory cytokines. (A) MDA-MB-231 and MDA-MB-468 cells were treated with the indicated concentrations of VNLG-152R for 72 h. Cell lysates were analyzed by immunoblotting with the indicated antibodies. (B) Head-to-head antiproliferative effects of VNLG-152R and eFT508 on MDA-MB-231 and MDA-MB-468 cells. The dose-response curves were generated from MTT assays after 6-day exposure to different concentrations of the compounds. Each point is a mean of replicates from three independent experiments. (C–E) MDA-MB-231 cell were treated with the indicated concentration of VNLG-152R or eFT508 for 72 h. Cell supernatants were collected, and the indicated cytokines were quantitated by Multiplex Luminex assay.
(§2) Cell growth inhibition assay was performed as described previously. For cell growth experiment, cells were treated with the VNLG-152R, VNLG-152E1 or VNLG-15E2 for 7 days. MTT assay was performed at the end of the experiment. Results represent the mean ± standard deviation of three independent experiments.

[2] = system: MDA-MB-468 cells; assay: as above; type: cell-based, human
Protocol: as §1, §2

[3] = system: MDA-MB-231 cells; assay: Multiplex Luminex supernatant cytokine analysis; type: cell-based, human; conditions: 72 h, cell supernatants
Protocol: Supernatants from the MDA-MB-231 (TNBC) cells in Fetal Bovine Serum (FBS) containing media were treated with various concentrations of VNLG-12R for 72 h, were collected, and various cytokines and growth factor concentrations (CLCX-1, IL-6, IL8 and TNF-α) were determined by Luminex multiplex assay kit (Millipore, Billerica, MA, USA) according to the manufacturer’s instructions. The expressions of secreted cytokines were read on Luminex 100 reader. The data was then analyzed using the BioPlex Software (BioRad, Hercules, CA, USA). The Luminex multiplex assays were conducted at the University of Maryland School of Medicine Cytokine Core Laboratory (Baltimore, MD, USA).

[4] = system: HCC-1806 (BL2); assay: MTT cell growth assay, 7 days; type: cell-based; conditions: Homo sapiens, HCC1806, 168 h
Protocol: (§3) Figure 3 In vitro characterization, pharmacokinetics and toxicity profile of VNLG-152R and its two enantiomers. (A) HPLC chromatograms racemic VNLG-152R (left panel) and the resolved enantiomers VNLG-152E1 and VNLG-152E2 (right panel). The conditions of HPLC procedure are presented in Supplementary Materials. (B) Table summarizing GI50 values (µM) each cell line treated with VNLG-152R and its enantiomers. TNBC cell subtypes were treated with listed compound (0.1 nmol/L–100 µmol/L) for 7 days and the GI50 values for the anti-proliferative effects of the compounds were determined from dose response curves (by a nonlinear regression analysis using Graph Pad Prism). Data represents the results from six independent experiments for each cell line. (C) Plasma concentration versus time profile after intravenous (IV, 2 mg/kg each, top panel) or oral (PO, 20 mg/kg each, bottom panel) of VNLG-152R (red), VNLG-152E1 (purple) and VNLG-152E2 (blue) to female CD1 mice. Values represent the mean plasma concentrations from three mice per time point. (D) Table of the pharmacokinetic parameters of various compounds after IV and PO dosing. AUC = area under the curve, T1/2 = elimination half-life, Cmax = maximum plasma concentration, F (%) = oral bioavailability. (E) Effects of VNLG-152R, VNLG-152E1 and VNLG-152E2 on body weight and clinical observations at chronic dose termination of study. Three different doses, i.e., 10, 25, and 50 mg/kg/day (formulated in 40% β-cyclodextrin in saline) of each compound were administered daily by oral gavage for 14 days. Each group consisted of three mice. Loss in body weight, a clinical sign of toxicity was observed during the 14 days of dosing and the maximum tolerated dose (MTD) was estimated following established procedures. Changes in body weight were scored on a scale of 0–4 as follows as described under methods. […]

[5] = system: MDA-MB-231 (MSL); assay: MTT cell growth assay, 7 days; type: cell-based; conditions: Homo sapiens, MDA-MB-231, 168 h
Protocol: as §3

[6] = system: MDA-MB-436 (MSL); assay: MTT cell growth assay, 7 days; type: cell-based; conditions: Homo sapiens, MDA-MB-436, 168 h
Protocol: as §3

[7] = system: MDA-MB-453 (LAR); assay: MTT cell growth assay, 7 days; type: cell-based; conditions: Homo sapiens, MDA-MB-453, 168 h
Protocol: as §3

[8] = system: MDA-MB-468 (BL1); assay: MTT cell growth assay, 7 days; type: cell-based; conditions: Homo sapiens, MDA-MB-468, 168 h
Protocol: as §3

[9] = system: MFM-223 (LAR); assay: MTT cell growth assay, 7 days; type: cell-based; conditions: Homo sapiens, MFM-223, 168 h
Protocol: as §3

[10] = 14-day oral toxicity / MTD study; design: species or system female athymic nude mice; conditions: female, athymic nude, mouse, in vivo; oral, 14 days, estimated; read-out: maximum tolerated dose (MTD)
Protocol: Three different doses, i.e., 10, 25, and 50 mg/kg/day (formulated in 40% β-cyclodextrin in saline) of each compound were administered daily by oral gavage for 14 days. Each group consisted of 3 mice. Their body weight kinetics (loss in body weight, a clinical sign of toxicity) was observed during the 14 days of dosing following established procedures. Changes in body weight were scored on a scale of 0–4 as follows: (1) Weight loss: (10 g = 4, 7–9 g = 3, 4–6 g = 2, 1–3 g = 1; severe = 3, moderate = 2, slight = 1, none = 0).

[11] = system: EMT-related proteins; assay: Western blot of EMT-related proteins in MDA-MB-231 and MDA-MB-468 cells; type: cell-based, human; conditions: 24 h
Protocol: MDA-MB-231, MDA-MB-468, MDA-MB-436, MDA-MB-453, HCC-1806, and MFM-223 cells were purchased from American Type Culture Collection (ATCC, Manassas, VA, USA), and authenticated at the Biopolymer/Genomics Core Facility, University of Maryland Baltimore. Cells were tested for mycoplasma contamination at the University of Maryland Marlene and Stewart Greenebaum Cancer Center (UMGCC) Translational Shared Service. Cells were cultured in the recommended media supplemented with 10% FBS and plated 1 day prior to treatment. Cells were treated with the indicated dose and time in the figure at 37 °C in 5% CO2. Protein lysates were harvested in RIPA lysis buffer (Sigma). Western blotting was done as described previously with antibodies described above.

[12] = system: Mnk1/2; design: method as in PMID 24504069; conditions: cited from earlier work

Q: Which results are given for `CC1=C(/C=C/C(C)=C/C=C/C(C)=C/C(=O)Nc2ccc(F)cc2)C(C)(C)CCC1n1ccnc1` (racemic) [VNLG-152R, 4-(±)-(1H-imidazol-1-yl)-N-(4-fluorophenyl)-(E)-retinamide]?
A: GI50 [1]: 890 nM; fold difference of GI50 (eFT508 vs VNLG-152R) [1]: 8 fold; GI50 ([1]; Homo sapiens, MDA-MB-231, 144 h): 891 nM; GI50 [2]: 500 nM; fold difference of GI50 (eFT508 vs VNLG-152R) [2]: 105 fold; GI50 ([2]; Homo sapiens, MDA-MB-468, 144 h): 501 nM; secreted IL-6 and IL-8, TNFα and chemokine CXCL1 [3]: dose-dependent reduction; GI50 [4]: 810 ± 40 nM; GI50 [5]: 620 ± 30 nM; GI50 [6]: 890 ± 30 nM; GI50 [7]: 740 ± 30 nM; GI50 [8]: 890 ± 60 nM; GI50 [9]: 1860 ± 120 nM; MTD at 14 days [10]: > 50 mg/kg; expression of N-Cadherin, β-catenin, MMP-2, MMP-9, Snail, Slug, Vimentin and TCF/ZEB-1 [11]: concentration-dependent decreases; inhibition of Mnk1/2 kinase activities [12]: no inhibition of Mnk1/2 kinase activities
